These results are taken from patent publication US6869941B2, “Combination of drospirenone and an estrogen sulphamate for HRT” (Schering AG, priority 2001, dated 2005).

What all share (assay type): physicochemical
A short description of series [1]: Solubility of drospirenone in water and aqueous buffers. The following applies: water and aqueous buffers at various pH values.
The nature of series [2]: In vitro dissolution, USP XXIII Paddle Method. The following applies: micronized form; rapid dissolution defined as at least 70% over about 30 minutes from a 3 mg tablet in 900 ml of water at 37° C., apparatus 2 at 50 rpm.
A short description of series [3]: Chemical stability of drospirenone under acid and alkaline conditions.

As for `C[C@]12CCC(=O)C=C1[C@@H]1C[C@@H]1[C@H]1[C@@H]3[C@@H]4C[C@@H]4[C@@]4(CCC(=O)O4)[C@@]3(C)CC[C@@H]12` [Drospirenone], the solubility result in series [1] was “sparingly soluble”. Moreover, the “dissolution of the active compound from the dosage unit in vitro” value in series [2] was “rapid dissolution”. Also, in series [3] (acid conditions), the “stability under acid conditions” value is “rearranged to an inactive isomer”. The “stability under alkaline conditions” value in series [3] (alkaline conditions) was “hydrolysed”.
